We go through 4 compounds from patent US8658648B2, “Modified chloroquines with single ring moiety or fused ring moiety” (DesignMedix, Inc., priority 2008, dated 2014).

Where two headings read alike, the source gives them in different places.

Series [1] deals with D6 (CQ^S) P. falciparum strain. Put plainly: In vitro fluorescence (Sybr Green I) assay for IC50 against D6 strain. In kind it is cell-based. Conditions: Plasmodium falciparum, read-out: IC50-D6. The text has this:
(§1) This method employs fluorescent detection of the level of parasitemia in cultured red blood cells and can be automated for high-throughput screening of antimalarial RCQs. This exemplary method allows the inhibitory agent (such as a MCQ) to be in contact with the parasite for an entire developmental cycle without purine starvation, which is in contrast to the traditional ^3H-hypoxanthine method (Desjardins et al. 1979. Antimicrob. Agents Chemother. 16(6):710-718, which is incorporated herein by reference in its entirety). Briefly, to perform the Smilkstein et al. method, an initial parasitemia of approximately 0.2% is attained by adding uninfected red blood cells (RBCs) to a stock culture of Plasmodium-infected RBCs. […] After a period of incubation (such as about 72 hours), a sufficient amount (e.g., 100 μL) of a fluorescent DNA binding dye-detergent mixture (e.g., Sybr Green I dye-detergent mixture) to lyse cells and bind to DNA is added to the reactions. Because uninfected RBCs have no DNA, only parasite DNA (in infected RBCs) is available for binding to the fluorescent dye (e.g., Sybr Green I). Samples are then incubated in the dark for a period of time (e.g., one hour), followed by measurement of levels of fluorescence. For Sybr Green 1, excitation and emission wavelength are 485 and 530 nm, respectively. Fluorescence readings, which represent the amount of parasite DNA in the sample, can be plotted against the Log [drug] and fit to a curve by nonlinear regression to obtain the IC50 value for the tested compound.
(§2) An in vitro fluorescence assay for determining IC50 of antimalarial drugs was performed as previously described by Smilkstein et al. (2004. Antimicrob. Agents Chemother. 48(5):1803-1806). This procedure can be automated for high-throughput screening of the antimalarial activities of RCQs described herein. This method also allows the tested agent (e.g., a MCQ) to be in contact with the parasite for an entire developmental cycle without purine starvation (which occurs with the commonly used ^3H-hypoxanthine method; see, e.g., Desjardins et al. 1979. Antimicrob. Agents Chemother. 16, (6):710-7188).
(§3) Briefly, an initial parasitemia of approximately 0.2% was attained by addition of uninfected red blood cells to a stock culture of cells infected with Dd2 (CQ^R), 7G8 (CQ^R), or D6 (CQ^S) P. falciparum strains. A 10 mM solution of a test compound (in DMSO) was prepared. The test compound (at a final concentration from 10^−11 to 10^−4 M) and infected red blood cells (at a final concentration of 2% (v/v)) were mixed in 100 μL samples in individual wells of a 96-well plate. Each sample was prepared in triplicate. A triplicate set of reactions containing CQ (instead of the test compound) was included as a control. After a 72 hour incubation period, Sybr Green I dye-detergent mixture (100 μL) was added to each reaction. The samples were further incubated for an hour in the dark, and then placed in a 96-well fluorescence plate reader (Gemini-EM, […]) and analyzed with excitation and emission wavelength bands at 485 and 530 nm, respectively. Fluorescence readings were plotted against the Log [drug], and curve fitting performed by nonlinear regression to find the IC50 value.

For series [2], the system named is mitogen-induced marine spleen lymphocytes. Format: cell-based. The settings on record: LC50; mouse spleen lymphocytes, 72 hours incubation, then resazurin 24 hours. How it is done:
Mouse spleen lymphocytes were isolated from C57B1/6J mice by teasing tissues on a metallic sieve screen. […] Two hundred (200) μl isolated cells were then seeded in separate wells of a 96-well flat-bottom tissue culture plate at a density of 2×10^5 cells per well. […] After 72 hours incubation in a humidified atmosphere at 37° C. and 5% CO2, a solution of resazurin PBS was added to a final concentration 10 μM, and the plates were returned to the incubator for another 24 hours. Resazurin is a substrate which changes color in response to metabolic activity (such as that found in living cells). […] LC50 values were determined from plots of florescence versus drug concentration using non-linear regression by Prism software.

Series [3] deals with Dd2 (CQ^R) P. falciparum strain. Description: In vitro fluorescence (Sybr Green I) assay for IC50 against Dd2 strain. In kind it is cell-based. Conditions: Plasmodium falciparum, read-out: IC50-Dd2.
Description: as §1, §2, §3

Series [4] has as its system 7G8 (CQ^R) P. falciparum strain. Description: In vitro fluorescence (Sybr Green I) assay for IC50 against 7G8 strain. In kind it is cell-based. The settings on record: Plasmodium falciparum, read-out: IC50-7G8.
Description: as §1, §2, §3

The test system of series [5] is P. berghei. Put plainly: In vivo activity in mice against P. berghei (survival). The settings on record: second 4× oral dose experiment, dosage equimolar to 30 mg/kg CQ; monitored up to 30 days.
In series [6] the test system is P. falciparum strain 3D7. The settings on record: cited from earlier work. Also: key: S = sensitive; R = resistant; S/R = intermediate level of resistance.
The test system of series [7] is P. falciparum strain TM91C235. Conditions: cited from earlier work. Also: key: S = sensitive; R = resistant; S/R = intermediate level of resistance.
The test system of series [8] is P. falciparum strain W2. The settings on record: cited from earlier work. Also: key: S = sensitive; R = resistant; S/R = intermediate level of resistance.
For series [9], the system named is P. falciparum strain FCR3. The settings on record: cited from earlier work. Also: key: S = sensitive; R = resistant; S/R = intermediate level of resistance.
In series [10] the test system is P. falciparum strain Dd2. Conditions: cited from earlier work. Also: key: S = sensitive; R = resistant; S/R = intermediate level of resistance.
The test system of series [11] is P. falciparum strain D6. The settings on record: cited from earlier work. Also: key: S = sensitive; R = resistant; S/R = intermediate level of resistance.
In series [12] the test system is P. falciparum strain 7G8. The settings on record: cited from earlier work. Also: key: S = sensitive; R = resistant; S/R = intermediate level of resistance.

Turning to `Clc1ccc2c(NCCCN3CCN(c4ccccn4)CC3)ccnc2c1` [7-chloro-N-(3-(4-(pyridin-2-yl)piperazin-1-yl)propyl)quinolin-4-amine], the half-maximal inhibitory concentration (IC50) was determined as 2.7 nM in series [1] (Erythrocyte, D6 (CQ^S) strain in infected red blood cells, 72 hour incubation); 4.8 nM in [3] (Erythrocyte, Dd2 (CQ^R) strain in infected red blood cells, 72 hour incubation); 9.5 nM in [4] (Erythrocyte, 7G8 (CQ^R) strain in infected red blood cells, 72 hour incubation). For the same compound, in series [2], the Cytotoxicity was found to be 8.6 µM. The “average survival for the mice” value in series [5] is recorded as 20 days.

For the compound `CCN(CC)CCCC(C)Nc1ccnc2cc(Cl)ccc12` (stereo not shown) [Chloroquine, chloroquine], the IC50 in series [1] (D6, Erythrocyte, 72 h) worked out at 6.9 nM; in series [3] (DD2, Erythrocyte, 72 h), 102 nM; in series [4] (7G8, Erythrocyte, 72 h), 106 nM. In addition, the “Drug susceptibility of P. falciparum strain 3D7” value in series [6] is on record as “S”. Besides, in series [7], the “Drug susceptibility of P. falciparum strain TM91C235” value was “R”. Further, in series [8], the “Drug susceptibility of P. falciparum strain W2” value was “R”. Further, the “Drug susceptibility of P. falciparum strain FCR3” value in series [9] is reported as “R”. Further, in series [10], the “Drug susceptibility of P. falciparum strain Dd2” value is given as “R”. In addition, the “Drug susceptibility of P. falciparum strain D6” value in series [11] is listed as “S”. Besides, the “Drug susceptibility of P. falciparum strain 7G8” value in series [12] is “R”.

As to `C=C[C@H]1C[N@@]2CC[C@H]1C[C@H]2[C@H](O)c1ccnc2ccc(OC)cc12` [Quinine], in series [7], the “Drug susceptibility of P. falciparum strain TM91C235” value is on record as “R”. The “Drug susceptibility of P. falciparum strain W2” value in [8] is recorded as “R”. In addition, the “Drug susceptibility of P. falciparum strain FCR3” value in [9] is “S”. Also, the “Drug susceptibility of P. falciparum strain Dd2” value in [10] is listed as “R”. Moreover, in series [11], the “Drug susceptibility of P. falciparum strain D6” value was “S”.

Take `COc1ncnc(NS(=O)(=O)c2ccc(N)cc2)c1OC` [Sulfadoxine]: the “Drug susceptibility of P. falciparum strain TM91C235” value in [7] is reported as “R”. In series [8], the “Drug susceptibility of P. falciparum strain W2” value is listed as “R”. For the same compound, the “Drug susceptibility of P. falciparum strain FCR3” value in series [9] is listed as “S”. The “Drug susceptibility of P. falciparum strain Dd2” value in series [10] is given as “S”. Also, in series [11], the “Drug susceptibility of P. falciparum strain D6” value is “S”.

What is called IC50 is the midpoint of a concentration-inhibition curve.
